Measurements taken from patent publication US12692248B2, “Solid state forms of (S)-N-(3-(2-(((R)-1-hydroxypropan-2-yl)amino)-6-morpholinopyridin-4-yl)-4-methylphenyl)-3-(2,2,2-trifluoroethyl)pyrrolidine-1-carboxamide and salts thereof” (PIERRE FABRE MEDICAMENT, priority 2021, dated 2026).
Values after ≈ are worked out from the molar mass of the structure shown. Read-outs that look alike come from different tables or passages of the source.

Columns and labels:
Format in all cases: physicochemical
[1] = Comparison dissolution trials in water and biorelevant media; conditions: for solubility at 0.5 h: read-out: Solubility (mg/mL) 0.5 h; for solubility at 2 h: read-out: Solubility (mg/mL) 2 h; for solubility at 24 h: read-out: Solubility (mg/mL) 24 h
Description: Comparison dissolution trials were performed on Compounds 1 and 2. About 20 mg of each sample was weighed into a sample vial and then 4 mL of media was added to make a suspension. All suspensions were shaken at 37° C. with a rate of 200 rpm. […] He pH of the filtrate was measured, and the filter cake was analyzed by XRPD. […] In biorelevant dissolution media FaSSIF and FeSSIF, the solubility of the Compound 1 and Compound 2 were similar.

[2] = Dynamic Vapor Sorption (DVS); conditions: for water uptake at 80% RH: 80% relative humidity
Description: Dynamic Vapor Sorption (DVS) Moisture sorption/desorption data was collected on a DVS Intrinsic PLUS (SMS, UK). The sample was placed into a tared sample chamber and automatically weighed. The sample was dried at 40° C./0%0 RH until the dm/dt was less than 0.00200 and cooled to 25° C. [table]

[3] = Solubility of Compound 1 in solvents
Description: Compound 1 is insoluble in n-heptane and water (<1 mg/mL) and soluble (>100 mg/mL) in methanol, ethanol, acetone, tetrahydrofuran, methyl ethyl ketone, ethyl acetate, acetonitrile, isobutanol, isopropyl alcohol and isopropyl acetate. Compound 1 has a solubility of about 60 mg/mL in methyl t-butyl ether.

[4] = Stability at 60° C. and 40° C. at 75% relative humidity for 9 days (UPLC purity, XRPD); conditions: for Purity −3 d: 3 days; for Purity −9 d: 9 days; for XRPD: crystal form check
Description: Compound 1 and Compound 2 were evaluated for stability at 60° C. and 40° C. at 75% relative humidity for 9 days. At 0, 3, and 9 days, the samples were dissolved with diluent to prepare a solution for purity analysis by UPLC. Solid samples were also analyzed by XRPD to check the crystal form.

[5] = Slurry experiments of amorphous hydrochloride; conditions: one day, XRPD
Description: An amorphous solid state form of (S)—N-(3-(2-(((R)-1-hydroxypropan-2-yl)amino)-6-morpholinopyridin-4-yl)-4-methylphenyl)-3-(2,2,2-trifluoroethyl)pyrrolidine-1-carboxamide hydrochloride is attainable. Amorphous (S)—N-(3-(2-(((R)-1-hydroxypropan-2-yl)amino)-6-morpholinopyridin-4-yl)-4-methylphenyl)-3-(2,2,2-trifluoroethyl)pyrrolidine-1-carboxamide hydrochloride was formed by rapid evaporation of 15 mg of Compound 2 dissolved in 0.5 mL of methanol. The solid was confirmed to be amorphous by XRPD. Slurry of amorphous (S)—N-(3-(2-(((R)-1-hydroxypropan-2-yl)amino)-6-morpholinopyridin-4-yl)-4-methylphenyl)-3-(2,2,2-trifluoroethyl)pyrrolidine-1-carboxamide hydrochloride in 0.5 mL of the solvents in Table 13 were prepared. Each suspension was stirred for one day at 50° C. and at RT. Each suspension was filtered and analyzed by XRPD. In each experiment, conversion from amorphous (S)—N-(3-(2-(((R)-1-hydroxypropan-2-yl)amino)-6-morpholinopyridin-4-yl)-4-methylphenyl)-3-(2,2,2-trifluoroethyl)pyrrolidine-1-carboxamide hydrochloride to crystalline Compound 2 was observed.

[6] = simulated gastric fluid, thermodynamic from solid, SGF, 37° C.
[7] = thermodynamic from solid, FaSSIF, 37° C.
[8] = thermodynamic from solid, FeSSIF, 37° C.
[9] = thermodynamic from solid, Water, 37° C.

Cc1ccc(NC(=O)N2CC[C@@H](CC(F)(F)F)C2)cc1-c1cc(N[C@H](C)CO)nc(N2CCOCC2)c1 [Compound 1, (S)—N-(3-(2-(((R)-1-hydroxypropan-2-yl)amino)-6-morpholinopyridin-4-yl)-4-methylphenyl)-3-(2,2,2-trifluoroethyl)pyrrolidine-1-carboxamide]
solid form conversion ([1]; FaSSGF, filter cake by XRPD): converted to Compound 2 | solubility of Compound 1 and Compound 2 compared ([1]; FaSSIF and FeSSIF): similar | pH of the filtrate ([1]; Water medium): (pH 6.4) | solubility at 0.5 h [1, 6]: 0.48 mg/mL (≈ 920 µM) | solubility at 2 h [1, 6]: 0.35 mg/mL (≈ 671 µM) | solubility at 24 h [1, 6]: 0.83 mg/mL (≈ 1590 µM) | solubility at 0.5 h [1, 7]: 0.024 mg/mL (≈ 46 µM) | solubility at 2 h [1, 7]: 0.022 mg/mL (≈ 42.2 µM) | solubility at 24 h [1, 7]: 0.018 mg/mL (≈ 34.5 µM) | solubility at 0.5 h [1, 8]: 0.15 mg/mL (≈ 288 µM) | solubility at 2 h [1, 8]: 0.17 mg/mL (≈ 326 µM) | solubility at 24 h [1, 8]: 0.15 mg/mL (≈ 288 µM) | solubility at 0.5 h [1, 9]: 0.004 mg/mL (≈ 7.67 µM) | solubility at 2 h [1, 9]: 0.004 mg/mL (≈ 7.67 µM) | solubility at 24 h [1, 9]: 0.009 mg/mL (≈ 17.3 µM) | solubility ([1]; thermodynamic from solid, water, 37° C.): < 9 µg/mL | hygroscopicity ([2]; DVS): slightly hygroscopic | water uptake at 80% RH ([2]; DVS, 25° C.): 2% | solid form after DVS testing ([2]; after DVS testing): remained amorphous | solubility ([3]; acetone, organic solvent or mixture): > 100000 µg/mL | solubility ([3]; acetonitrile, organic solvent or mixture): > 100000 µg/mL | solubility ([3]; ethanol, organic solvent or mixture): > 100000 µg/mL | solubility ([3]; ethyl acetate, organic solvent or mixture): > 100000 µg/mL | solubility ([3]; isobutanol, organic solvent or mixture): > 100000 µg/mL | solubility ([3]; isopropyl acetate, organic solvent or mixture): > 100000 µg/mL | solubility ([3]; isopropyl alcohol, organic solvent or mixture): > 100000 µg/mL | solubility ([3]; methanol, organic solvent or mixture): > 100000 µg/mL | solubility ([3]; methyl ethyl ketone, organic solvent or mixture): > 100000 µg/mL | solubility ([3]; methyl t-butyl ether, organic solvent or mixture): ~60000 µg/mL (≈ 115000 µM) | solubility ([3]; n-heptane, organic solvent or mixture): < 1000 µg/mL | solubility ([3]; tetrahydrofuran, organic solvent or mixture): > 100000 µg/mL | solubility ([3]; water): < 1000 µg/mL | Purity −0 d (Area %) ([4]; 0 days (initial), UPLC): 99.43 Area % | Purity −3 d ([4]; 40° C./75% RH, UPLC): 99.42 Area % | Purity −9 d ([4]; 40° C./75% RH, UPLC): 99.40 Area % | XRPD ([4]; 40° C./75% RH): No change | Purity −3 d ([4]; 60° C., UPLC): 99.39 Area % | Purity −9 d ([4]; 60° C., UPLC): 99.42 Area % | XRPD ([4]; 60° C.): No change

Br.Cc1ccc(NC(=O)N2CC[C@@H](CC(F)(F)F)C2)cc1-c1cc(N[C@H](C)CO)nc(N2CCOCC2)c1 [Compound 3, (S)—N-(3-(2-(((R)-1-hydroxypropan-2-yl)amino)-6-morpholinopyridin-4-yl)-4-methylphenyl)-3-(2,2,2-trifluoroethyl)pyrrolidine-1-carboxamide hydrobromide]
hygroscopicity ([2]; DVS): slightly hydroscopic | water uptake at 80% RH ([2]; DVS, 25° C.): 0.27% | water uptake at 90% relative humidity ([2]; DVS, 25° C., 90% relative humidity): 0.45%

Cc1ccc(NC(=O)N2CC[C@@H](CC(F)(F)F)C2)cc1-c1cc(N[C@H](C)CO)nc(N2CCOCC2)c1.Cl [amorphous Compound 2, (S)—N-(3-(2-(((R)-1-hydroxypropan-2-yl)amino)-6-morpholinopyridin-4-yl)-4-methylphenyl)-3-(2,2,2-trifluoroethyl)pyrrolidine-1-carboxamide hydrochloride]
Resulting Solid State Form ([5]; slurry in Acetone, 50° C.): Form I | Resulting Solid State Form ([5]; slurry in Acetone, RT): Form I | Resulting Solid State Form ([5]; slurry in Ethanol, 50° C.): Form I | Resulting Solid State Form ([5]; slurry in Ethanol, RT): Form I | Resulting Solid State Form ([5]; slurry in Ethyl acetate, 50° C.): Form I | Resulting Solid State Form ([5]; slurry in Ethyl acetate, RT): Form I | Resulting Solid State Form ([5]; slurry in Water, 50° C.): Form I | Resulting Solid State Form ([5]; slurry in Water, RT): Form I | Resulting Solid State Form ([5]; slurry in n-Heptane, 50° C.): Form I | Resulting Solid State Form ([5]; slurry in n-Heptane, RT): Form I
